Consider one compound from publication PMC6934184, “Selective DNA-PKcs inhibition extends the therapeutic index of localized radiotherapy and chemotherapy” (The Journal of Clinical Investigation, 2019).

This assay has as its target T1, CLK2 (Homo sapiens, UniProt P49760).
T1 construct: purchased Thermo Fisher Scientific (Life Technologies) SelectScreen
The assay is described as follows: SelectScreen Z'LYTE. Type of assay: biochemical. The essentials:
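NU5455 was profiled across the SelectScreen Broad panel of kinase activity and binding assays. Z'LYTE reactions such as CSF1R ran at apparent Km ATP, while the Adapta CAMK1 assay used ATP listed as 10. Values are given as percent.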

T1 sequence (P49760 whole entry): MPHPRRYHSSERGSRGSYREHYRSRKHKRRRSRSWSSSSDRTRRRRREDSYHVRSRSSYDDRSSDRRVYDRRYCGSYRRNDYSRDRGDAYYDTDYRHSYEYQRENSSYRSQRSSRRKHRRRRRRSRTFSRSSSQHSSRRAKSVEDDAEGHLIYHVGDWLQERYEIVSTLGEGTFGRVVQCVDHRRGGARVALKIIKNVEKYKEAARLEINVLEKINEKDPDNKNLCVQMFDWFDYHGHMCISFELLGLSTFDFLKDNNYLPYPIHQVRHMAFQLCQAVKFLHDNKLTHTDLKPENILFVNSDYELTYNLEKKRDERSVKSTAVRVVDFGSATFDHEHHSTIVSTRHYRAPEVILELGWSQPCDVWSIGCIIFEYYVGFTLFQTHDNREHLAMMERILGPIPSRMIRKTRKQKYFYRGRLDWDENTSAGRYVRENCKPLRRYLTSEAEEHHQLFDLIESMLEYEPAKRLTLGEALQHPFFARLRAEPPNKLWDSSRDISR

Broadly, the inhibition is the relative decrease from the control value, in per cent. Read a high inhibition as a response far below the control. For the compound `CN(C(=O)CN1CCOCC1)c1ccc2sc3c(-c4cccc5c(=O)cc(N6CC7CCC(C6)O7)oc45)cccc3c2c1` [NU5455], the inhibition at 1 µM came to 4.1%.
